Results taken from PubChem BioAssay (NCI).
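96-well plates; 48 h exposure; 5 concentrations. Endpoints by linear interpolation between flanking doses. Not reached: highest tested concentration assigned. Abbreviation: GI50, concentration required for 50% inhibition of growth. At the TGI there is no net growth.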

Assays:
Experiment in all cases: inhibition of tumour cell growth, NCI panel, 48 h
786-0 renal = test system: 786-0 renal
A498 renal = test system: A498 renal
A549 NSCLC = test system: A549 NSCLC
ACHN renal = test system: ACHN renal
BT-549 breast = test system: BT-549 breast
CAKI-1 renal = test system: CAKI-1 renal
COLO 205 colon = test system: COLO 205 colon
DU-145 prostate = test system: DU-145 prostate
EKVX NSCLC = test system: EKVX NSCLC
HCC-2998 colon = test system: HCC-2998 colon
HCT-116 colon = test system: HCT-116 colon
HCT-15 colon = test system: HCT-15 colon
HL-60(TB) leukemia = test system: HL-60(TB) leukemia
HOP-62 NSCLC = test system: HOP-62 NSCLC
HOP-92 NSCLC = test system: HOP-92 NSCLC
HS 578T breast = test system: HS 578T breast
HT29 colon = test system: HT29 colon
K-562 leukemia = test system: K-562 leukemia
KM12 colon = test system: KM12 colon
LOX IMVI melanoma = test system: LOX IMVI melanoma
M14 melanoma = test system: M14 melanoma
MALME-3M melanoma = test system: MALME-3M melanoma
MCF7 breast = test system: MCF7 breast
MDA-MB-231 breast = test system: MDA-MB-231 breast
MDA-MB-435 = test system: MDA-MB-435
MOLT-4 leukemia = test system: MOLT-4 leukemia
NCI-H226 lung = test system: NCI-H226 lung
NCI-H23 lung = test system: NCI-H23 lung
NCI-H460 lung = test system: NCI-H460 lung
NCI-H522 lung = test system: NCI-H522 lung
NCI/ADR-RES ovarian = test system: NCI/ADR-RES ovarian
OVCAR-3 ovarian = test system: OVCAR-3 ovarian
OVCAR-4 ovarian = test system: OVCAR-4 ovarian
OVCAR-5 ovarian = test system: OVCAR-5 ovarian
OVCAR-8 ovarian = test system: OVCAR-8 ovarian
PC-3 prostate = test system: PC-3 prostate
RPMI-8226 leukemia = test system: RPMI-8226 leukemia
RXF 393 renal = test system: RXF 393 renal
SF-268 CNS = test system: SF-268 CNS
SF-295 CNS = test system: SF-295 CNS
SF-539 CNS = test system: SF-539 CNS
SK-MEL-2 melanoma = test system: SK-MEL-2 melanoma
SK-MEL-28 melanoma = test system: SK-MEL-28 melanoma
SK-MEL-5 melanoma = test system: SK-MEL-5 melanoma
SK-OV-3 ovarian = test system: SK-OV-3 ovarian
SN12C renal = test system: SN12C renal
SNB-19 CNS = test system: SNB-19 CNS
SNB-75 CNS = test system: SNB-75 CNS
SR leukemia = test system: SR leukemia
SW-620 colon = test system: SW-620 colon
T-47D breast = test system: T-47D breast
TK-10 renal = test system: TK-10 renal
U251 CNS = test system: U251 CNS
UACC-257 melanoma = test system: UACC-257 melanoma
UACC-62 melanoma = test system: UACC-62 melanoma
UO-31 renal = test system: UO-31 renal

Which GI50 (786-0 renal) does the source give for CC(=O)O[C@H]1CCC2(C)C(=CCC3C2CCC2(C)/C(=N/OC(=O)c4ccc(N(CCCl)CCCl)cc4)CCC32)C1 (some centres not stated) here?
Its GI50 is 4.21 µM.

What about the TGI (786-0 renal) of the same compound?
The TGI was greater than 100 µM.

And the GI50 (A498 renal)?
Its GI50 is 3.52 µM.

What about the TGI (A498 renal) of the same compound?
Its TGI is greater than 62.8 µM.

What about the GI50 (A549 NSCLC) of the same compound?
Its GI50 is 2.45 µM.

And the TGI (A549 NSCLC)?
Its TGI is 8.37 µM.

What about the GI50 (ACHN renal) of the same compound?
The GI50 was 5.19 µM.

What about the TGI (ACHN renal) of the same compound?
The TGI was greater than 100 µM.

And the GI50 (BT-549 breast)?
Its GI50 is 8.67 µM.

And the TGI (BT-549 breast)?
Its TGI is greater than 100 µM.

And the GI50 (CAKI-1 renal)?
Its GI50 is 3.88 µM.

What about the TGI (CAKI-1 renal) of the same compound?
The TGI was greater than 100 µM.

And the GI50 (COLO 205 colon)?
The GI50 was greater than 100 µM.

And the TGI (COLO 205 colon)?
Its TGI is greater than 100 µM.

And the GI50 (DU-145 prostate)?
The GI50 was greater than 89.1 µM.

And the TGI (DU-145 prostate)?
The TGI was greater than 100 µM.

And the GI50 (EKVX NSCLC)?
The GI50 was 8.78 µM.

What about the TGI (EKVX NSCLC) of the same compound?
Its TGI is greater than 100 µM.

And the GI50 (HCC-2998 colon)?
The GI50 was greater than 55.5 µM.

And the TGI (HCC-2998 colon)?
Its TGI is greater than 100 µM.

And the GI50 (HCT-116 colon)?
Its GI50 is 2.34 µM.

And the TGI (HCT-116 colon)?
The TGI was greater than 100 µM.

And the GI50 (HCT-15 colon)?
The GI50 was 8.87 µM.

And the TGI (HCT-15 colon)?
Its TGI is greater than 100 µM.

What about the GI50 (HL-60(TB) leukemia) of the same compound?
Its GI50 is 7.01 µM.

What about the TGI (HL-60(TB) leukemia) of the same compound?
The TGI was greater than 100 µM.

And the GI50 (HOP-62 NSCLC)?
Its GI50 is 4.42 µM.

And the TGI (HOP-62 NSCLC)?
The TGI was 24.9 µM.

What about the GI50 (HOP-92 NSCLC) of the same compound?
Its GI50 is 13.8 µM.

What about the TGI (HOP-92 NSCLC) of the same compound?
Its TGI is greater than 100 µM.

And the GI50 (HS 578T breast)?
Its GI50 is 2.41 µM.

And the TGI (HS 578T breast)?
Its TGI is 13.5 µM.

What about the GI50 (HT29 colon) of the same compound?
Its GI50 is 4.92 µM.

What about the TGI (HT29 colon) of the same compound?
The TGI was greater than 100 µM.

What about the GI50 (K-562 leukemia) of the same compound?
Its GI50 is 3.9 µM.

What about the TGI (K-562 leukemia) of the same compound?
The TGI was greater than 100 µM.

And the GI50 (KM12 colon)?
Its GI50 is 7.13 µM.

What about the TGI (KM12 colon) of the same compound?
Its TGI is greater than 100 µM.

What about the GI50 (LOX IMVI melanoma) of the same compound?
Its GI50 is 2.6 µM.

And the TGI (LOX IMVI melanoma)?
The TGI was greater than 100 µM.

And the GI50 (M14 melanoma)?
The GI50 was 20.3 µM.

And the TGI (M14 melanoma)?
The TGI was greater than 100 µM.

And the GI50 (MALME-3M melanoma)?
The GI50 was greater than 65.4 µM.

What about the TGI (MALME-3M melanoma) of the same compound?
The TGI was greater than 100 µM.

What about the GI50 (MCF7 breast) of the same compound?
Its GI50 is 12.7 µM.

What about the TGI (MCF7 breast) of the same compound?
The TGI was greater than 100 µM.

What about the GI50 (MDA-MB-231 breast) of the same compound?
The GI50 was 4.46 µM.

And the TGI (MDA-MB-231 breast)?
Its TGI is greater than 100 µM.

What about the GI50 (MDA-MB-435) of the same compound?
Its GI50 is 10.8 µM.

What about the TGI (MDA-MB-435) of the same compound?
The TGI was greater than 100 µM.

And the GI50 (MOLT-4 leukemia)?
Its GI50 is 4.91 µM.

And the TGI (MOLT-4 leukemia)?
Its TGI is greater than 100 µM.

What about the GI50 (NCI-H226 lung) of the same compound?
The GI50 was greater than 45.3 µM.

What about the TGI (NCI-H226 lung) of the same compound?
The TGI was greater than 100 µM.

What about the GI50 (NCI-H23 lung) of the same compound?
Its GI50 is 6 µM.

And the TGI (NCI-H23 lung)?
Its TGI is greater than 100 µM.

And the GI50 (NCI-H460 lung)?
Its GI50 is 4.65 µM.

And the TGI (NCI-H460 lung)?
Its TGI is greater than 100 µM.

And the GI50 (NCI-H522 lung)?
The GI50 was 4.88 µM.

What about the TGI (NCI-H522 lung) of the same compound?
The TGI was greater than 82.8 µM.

And the GI50 (NCI/ADR-RES ovarian)?
The GI50 was 5.73 µM.

And the TGI (NCI/ADR-RES ovarian)?
The TGI was greater than 100 µM.

And the GI50 (OVCAR-3 ovarian)?
Its GI50 is 9.84 µM.

What about the TGI (OVCAR-3 ovarian) of the same compound?
The TGI was greater than 100 µM.

What about the GI50 (OVCAR-4 ovarian) of the same compound?
Its GI50 is 7.78 µM.

What about the TGI (OVCAR-4 ovarian) of the same compound?
Its TGI is greater than 100 µM.

And the GI50 (OVCAR-5 ovarian)?
The GI50 was greater than 72.8 µM.

What about the TGI (OVCAR-5 ovarian) of the same compound?
The TGI was greater than 100 µM.

And the GI50 (OVCAR-8 ovarian)?
Its GI50 is 4.02 µM.

What about the TGI (OVCAR-8 ovarian) of the same compound?
The TGI was greater than 100 µM.

What about the GI50 (PC-3 prostate) of the same compound?
Its GI50 is 7.99 µM.

What about the TGI (PC-3 prostate) of the same compound?
The TGI was greater than 100 µM.

And the GI50 (RPMI-8226 leukemia)?
Its GI50 is 5.68 µM.

And the TGI (RPMI-8226 leukemia)?
Its TGI is greater than 100 µM.

What about the GI50 (RXF 393 renal) of the same compound?
The GI50 was 3.05 µM.

What about the TGI (RXF 393 renal) of the same compound?
Its TGI is 45.9 µM.

What about the GI50 (SF-268 CNS) of the same compound?
Its GI50 is 2.55 µM.

And the TGI (SF-268 CNS)?
The TGI was 7.71 µM.

What about the GI50 (SF-295 CNS) of the same compound?
Its GI50 is 3.84 µM.

And the TGI (SF-295 CNS)?
Its TGI is greater than 58 µM.

What about the GI50 (SF-539 CNS) of the same compound?
Its GI50 is 6.89 µM.

What about the TGI (SF-539 CNS) of the same compound?
Its TGI is greater than 100 µM.

What about the GI50 (SK-MEL-2 melanoma) of the same compound?
Its GI50 is 32.4 µM.

And the TGI (SK-MEL-2 melanoma)?
Its TGI is greater than 100 µM.

And the GI50 (SK-MEL-28 melanoma)?
The GI50 was greater than 100 µM.

What about the TGI (SK-MEL-28 melanoma) of the same compound?
The TGI was greater than 100 µM.

What about the GI50 (SK-MEL-5 melanoma) of the same compound?
Its GI50 is 20.4 µM.

And the TGI (SK-MEL-5 melanoma)?
Its TGI is greater than 100 µM.

What about the GI50 (SK-OV-3 ovarian) of the same compound?
The GI50 was greater than 100 µM.

What about the TGI (SK-OV-3 ovarian) of the same compound?
Its TGI is greater than 100 µM.

What about the GI50 (SN12C renal) of the same compound?
Its GI50 is 5.48 µM.

And the TGI (SN12C renal)?
The TGI was greater than 100 µM.

What about the GI50 (SNB-19 CNS) of the same compound?
The GI50 was 3.16 µM.

And the TGI (SNB-19 CNS)?
Its TGI is 98.2 µM.

And the GI50 (SNB-75 CNS)?
Its GI50 is 4.47 µM.

What about the TGI (SNB-75 CNS) of the same compound?
Its TGI is 42.7 µM.

And the GI50 (SR leukemia)?
Its GI50 is 1.4 µM.

And the TGI (SR leukemia)?
Its TGI is 5.98 µM.

What about the GI50 (SW-620 colon) of the same compound?
The GI50 was greater than 100 µM.

And the TGI (SW-620 colon)?
Its TGI is greater than 100 µM.

And the GI50 (T-47D breast)?
Its GI50 is 4.02 µM.

And the TGI (T-47D breast)?
Its TGI is greater than 100 µM.

And the GI50 (TK-10 renal)?
The GI50 was 8.71 µM.

What about the TGI (TK-10 renal) of the same compound?
The TGI was greater than 73.6 µM.

And the GI50 (U251 CNS)?
Its GI50 is 1.88 µM.

And the TGI (U251 CNS)?
Its TGI is greater than 28.8 µM.

And the GI50 (UACC-257 melanoma)?
The GI50 was greater than 100 µM.

What about the TGI (UACC-257 melanoma) of the same compound?
The TGI was greater than 100 µM.

And the GI50 (UACC-62 melanoma)?
Its GI50 is 7.86 µM.

What about the TGI (UACC-62 melanoma) of the same compound?
The TGI was greater than 100 µM.

What about the GI50 (UO-31 renal) of the same compound?
The GI50 was 1.99 µM.

And the TGI (UO-31 renal)?
The TGI was greater than 20.8 µM.
